According to paper PMC4192545, “Suramin Inhibits Hsp104 ATPase and Disaggregase Activity” (PLoS ONE, 2014):

What was measured:
Type in all cases: biochemical, yeast
Hsp104^WT = target: T1, Hsp104^WT (Saccharomyces cerevisiae, UniProt P31539); assay: RepA1–70-GFP unfolding assay; details: GroELtrap, ATP:ATPγS 1:1
T1 construct: made in house; host or cells: E. coli BL21-DE3 RIL
Procedure: RepA1–70-GFP unfolding was performed as described previously. Varying concentrations of Suramin (0, 25, or 100 µM) were included as noted.
Next, we determined that Suramin hinders the unfoldase activity of Hsp104 using a RepA1–70-GFP substrate ( Figure 4A ). To assess RepA1–70-GFP unfolding without interference from spontaneous refolding, we added GroELtrap, which captures unfolded proteins to prevent refolding, [71].
Figure 4 Suramin inhibits Hsp104-mediated substrate unfolding and translocation. (A) RepA1–70-GFP was incubated with Hsp104^WT and GroELtrap plus a 1∶1 mixture of ATP and ATPγS. GFP unfolding was measured by fluorescence. GroELtrap alone is shown as a negative control (red line). Fluorescence values were normalized to initial raw fluorescence for each sample. Values represent mean ±S.D. (n = 3). (B) FITC-casein (0.1 µM) was incubated at 25°C with HAP (1 µM hexamer) and ClpP (21 µM monomer) plus ATP (5 mM) and an ATP regeneration system. Degradation of FITC-casein was monitored by fluorescence. Initial fluorescence was subtracted from raw fluorescence values for each sample. HAP alone is shown as a negative control (red line). Values represent mean ±S.D. (n = 5).

Hsp104^T317A = target: T2, Hsp104^T317A (Saccharomyces cerevisiae, UniProt P31539, T317A); assay: ATPase assay, Hsp104^T317A; details: read-out: Hsp104^T317A ATPase activity relative to uninhibited protein
T2 construct: made in house; host or cells: E. coli BL21-DE3 RIL
T2 sequence (P31539 whole entry T317A): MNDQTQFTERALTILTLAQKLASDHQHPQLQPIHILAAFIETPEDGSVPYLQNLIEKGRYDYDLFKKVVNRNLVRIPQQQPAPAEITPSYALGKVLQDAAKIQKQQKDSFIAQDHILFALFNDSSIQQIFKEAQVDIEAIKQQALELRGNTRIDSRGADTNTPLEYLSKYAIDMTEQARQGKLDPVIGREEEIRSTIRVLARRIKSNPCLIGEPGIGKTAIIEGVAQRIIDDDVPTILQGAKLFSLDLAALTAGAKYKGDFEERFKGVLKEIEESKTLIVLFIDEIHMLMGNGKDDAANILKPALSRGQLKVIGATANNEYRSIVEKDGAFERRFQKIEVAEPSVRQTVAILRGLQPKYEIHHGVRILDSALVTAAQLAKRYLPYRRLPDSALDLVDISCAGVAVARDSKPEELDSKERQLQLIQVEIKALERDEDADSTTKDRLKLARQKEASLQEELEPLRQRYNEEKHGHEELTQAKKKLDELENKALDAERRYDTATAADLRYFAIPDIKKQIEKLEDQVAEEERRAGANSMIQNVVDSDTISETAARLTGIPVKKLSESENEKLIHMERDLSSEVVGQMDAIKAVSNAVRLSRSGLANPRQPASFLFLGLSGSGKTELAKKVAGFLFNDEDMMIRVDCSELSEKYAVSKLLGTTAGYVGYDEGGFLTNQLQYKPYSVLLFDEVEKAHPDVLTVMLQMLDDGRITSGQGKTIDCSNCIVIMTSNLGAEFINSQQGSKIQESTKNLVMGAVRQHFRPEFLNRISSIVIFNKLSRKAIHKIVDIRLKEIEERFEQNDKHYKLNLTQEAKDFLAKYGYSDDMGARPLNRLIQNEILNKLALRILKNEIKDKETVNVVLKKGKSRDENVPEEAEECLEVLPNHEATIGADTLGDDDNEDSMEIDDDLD
Procedure: Wild-type or mutant Hsp104 (0.25 µM monomer) in ATPase buffer (20 mM HEPES-KOH pH 7.4, 20 mM NaCl and 10 mM MgCl2) was incubated for 60 or 10 min at 25°C in the presence of ATP (1 mM) as noted. ATPase activity was assessed by the release of inorganic phosphate determined by using a malachite green phosphate detection kit (Innova).
Figure 7 Hsp104 variants respond differently to Suramin than Hsp104^WT. (A) Hsp104 variants (0.25 µM monomer) were incubated for 10 min with ATP (1 mM) and varying concentrations of Suramin. The amount of Pi produced was measured by absorbance at 635 nm. Absorbance values were normalized to the absorbance produced by each Hsp104 variant in the absence of inhibitor. Values represent mean ±S.D. (n = 6). (B) Urea-denatured firefly luciferase aggregates were incubated for 90 min at 25°C with Hsp104 variants (1 µM hexamer) plus 1∶1 mixtures of ATP and ATPγS (or ATP alone) and varying concentrations of Suramin. Luciferase reactivation was then determined and normalized to untreated disaggregase activity for each variant in the presence of ATPγS: ATP (or ATP alone). 1∶1 mixtures of ATP and ATPγS were used for Hsp104^WT and Hsp104^T317A, while ATP alone was used for Hsp104^A503V and Hsp104^N728A. Values represent mean ±S.D. (n = 6–12).

Hsp104 = target: T3, Hsp104 (Saccharomyces cerevisiae, UniProt P31539); assay: High-throughput Hsp104 ATPase plate assay (malachite green, 384-well); details: 60 min
T3 construct: made in house; host or cells: E. coli BL21-DE3 RIL
T3 sequence (P31539 whole entry): as the sequence (P31539 whole entry T317A) above, with A317T counted along it
Procedure: ATPase activity was assessed by the release of inorganic phosphate determined using a malachite green phosphate detection kit (Innova Biosciences, Cambridge, United Kingdom). Microtiter plates (384-well) were purchased from PerkinElmer (Waltham, MA). Three libraries were screened: The NIH Clinical Collection (450 small molecules), the Spectrum Collection (2,000 compounds, MicroSource, Gaylordsville, CT) and the HitFinder Collection (14,400 compounds, Maybridge).
We adapted the inorganic phosphate colorimetric assay to fit a 384-well plate format. A Ź-factor between 0.8 and 1 was calculated for the assay. A 2X Hsp104 stock solution was dispensed into each well using a Biotek microflo (Biotek Instruments, Winooski, VT). Compounds were then transferred using a Janus 96/384 Modular Dispensing Tool (PerkinElmer). Finally, a 2X ATP solution was dispensed using the Biotek microflo. Final concentrations of Hsp104 (monomer) and ATP were 0.25 µM and 1 mM respectively. Seeking to avoid the discovery of competitive inhibitors, we designed our high-throughput screen to use a 100-fold excess of ATP with respect to the test compounds (10 µM each). Final buffer conditions were 20 mM HEPES-KOH pH 7.4, 20 mM NaCl and 10 mM MgCl2. The ATPase reaction was allowed to continue for 60 min, at which time the reaction was terminated by addition of the colorimetric reagent. Absorbance was measured at 635 nm on an EnVision Xcite Multilabel plate reader (PerkinElmer). Hits were tested in duplicate. […] Ten of these were subjected to a 6-point titration (40, 13.3, 4.44, 1.45, 0.49 and 0 µM) in the absence or presence of Triton X-100, BSA, or both Triton X-100 and BSA at the specified concentrations. Heat maps were created in Excel for Mac 2011 (Microsoft Corporation) using the Conditional Formatting feature (Color Scales).
We aimed to identify small molecules capable of inhibiting Hsp104. To do so, we employed high-throughput screening using Hsp104 ATPase activity as a proxy for function. To detect changes in Hsp104 ATPase activity, we used a colorimetric assay detecting free inorganic phosphate (Pi) based on the formation of a colored complex between Pi and a dye molecule under acidic conditions, [44]. Pi is produced from the Hsp104-driven hydrolysis of ATP. The colored complex concentration, a surrogate for Pi concentration and ATPase rate, is determined by measuring the absorbance of a sample at 635 nm. We used recombinant Hsp104 purified from E. coli. An Hsp104 mutant with mutations in both NBD1 and NBD2 Walker B sequence motifs (Hsp104^DWB, carrying ATPase ablating mutations E285Q: E687Q) was used as a negative control for ATPase activity. Hsp104^WT activity results in a high A635 (high ATPase), while Hsp104^DWB activity results in a low A635 (low ATPase). We optimized the Pi colorimetric assay to fit a 384-well plate format. We selected the Hsp104 concentration (0.25 µM) on the basis of previous experience in our laboratory. The ATP concentration was selected to be in a 100-fold excess of ATP with respect to the test compounds. […] We screened 16,850 compounds from the NIH Clinical Collection as well as the Spectrum and Maybridge compound libraries. […] For instance, hexachlorophene and tannic acid inhibit Hsp104 ATPase activity by ∼80%, while Merbromin and Sennoside a inhibit by ∼20% ( Table 1 ).

T1 sequence (P31539 whole entry): as the sequence (P31539 whole entry T317A) above, with A317T counted along it

## Cc1ccc(C(=O)Nc2ccc(S(=O)(=O)O)c3cc(S(=O)(=O)O)cc(S(=O)(=O)O)c23)cc1NC(=O)c1cccc(NC(=O)Nc2cccc(C(=O)Nc3cc(C(=O)Nc4ccc(S(=O)(=O)O)c5cc(S(=O)(=O)O)cc(S(=O)(=O)O)c45)ccc3C)c2)c1 [Suramin]
Hsp104^WT; Suramin 25 µM
  Effect on RepA1–70-GFP unfolding by Hsp104: only mildly inhibited
Hsp104^WT; Suramin 100 µM
  Effect on RepA1–70-GFP unfolding by Hsp104: prevented substrate unfolding
Hsp104^T317A
  activity at 100 µM: ~65%
Hsp104; 10 µM compound, Hsp104 0.25 µM monomer, ATP 1 mM, mean ±S.D. (n = 2), read-out: % Inhibition of Hsp104 ATP hydrolysis
  inhibition at 10 µM: 50.8 ± 2.83%
Hsp104; titration 40-0.49 µM, Triton X-100 and BSA, heat map Figure 1A
  Inhibition of Hsp104 ATPase activity in the presence of both Triton X-100 and BSA: most significantly inhibit Hsp104 ATPase activity
